Test results reported in patent publication US9884063B2, “Amido-substituted azole compounds” (Bayer Pharma Aktiengesellschaft, priority 2014, dated 2018).

The compounds below were run against T1, TNKS2 (Homo sapiens, UniProt Q9H2K2) (assay: Modified TNKS2 Assay 2 (auto-parsylation, [3H]-NAD+ SPA)). Conditions: 6 nM TNKS2, 96 well.
T1 sequence (Q9H2K2 1-1166): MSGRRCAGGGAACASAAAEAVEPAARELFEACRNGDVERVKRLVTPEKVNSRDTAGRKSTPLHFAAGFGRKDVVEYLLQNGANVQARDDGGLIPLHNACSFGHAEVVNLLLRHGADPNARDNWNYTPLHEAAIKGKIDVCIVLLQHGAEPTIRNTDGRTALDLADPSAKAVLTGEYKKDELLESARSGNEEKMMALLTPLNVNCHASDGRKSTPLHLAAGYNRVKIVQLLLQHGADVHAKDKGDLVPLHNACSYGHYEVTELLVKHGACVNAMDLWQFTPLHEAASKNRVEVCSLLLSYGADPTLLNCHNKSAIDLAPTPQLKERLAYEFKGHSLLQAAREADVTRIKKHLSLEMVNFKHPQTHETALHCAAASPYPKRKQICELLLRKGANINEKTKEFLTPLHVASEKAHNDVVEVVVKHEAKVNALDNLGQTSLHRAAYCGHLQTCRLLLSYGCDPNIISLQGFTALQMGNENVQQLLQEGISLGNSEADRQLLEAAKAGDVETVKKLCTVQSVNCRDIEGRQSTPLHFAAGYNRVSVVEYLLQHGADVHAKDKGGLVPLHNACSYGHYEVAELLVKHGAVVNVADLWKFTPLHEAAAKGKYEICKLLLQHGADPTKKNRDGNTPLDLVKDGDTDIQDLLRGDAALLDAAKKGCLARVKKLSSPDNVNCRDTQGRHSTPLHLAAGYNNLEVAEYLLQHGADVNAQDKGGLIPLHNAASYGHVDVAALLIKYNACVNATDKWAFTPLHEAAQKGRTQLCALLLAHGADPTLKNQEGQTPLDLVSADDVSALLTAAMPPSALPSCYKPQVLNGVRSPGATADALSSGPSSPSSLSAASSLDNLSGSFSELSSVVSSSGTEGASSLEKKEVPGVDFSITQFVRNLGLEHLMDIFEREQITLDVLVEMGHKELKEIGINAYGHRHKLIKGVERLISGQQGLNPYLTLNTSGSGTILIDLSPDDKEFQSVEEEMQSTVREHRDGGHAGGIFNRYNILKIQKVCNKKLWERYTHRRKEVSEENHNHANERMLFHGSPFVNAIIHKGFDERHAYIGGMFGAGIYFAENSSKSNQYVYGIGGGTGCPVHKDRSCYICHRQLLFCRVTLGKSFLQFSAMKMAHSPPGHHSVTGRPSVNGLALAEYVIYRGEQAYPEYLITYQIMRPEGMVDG
Assay type: biochemical
In the case of `CN(C)CCNC(=O)c1[nH]cnc1C(=O)Nc1ccc(NC(=O)c2ccc(F)cc2Br)cc1` [Example 217, N^4-{4-[(2-bromo-4-fluorobenzoyl)amino]phenyl}-N^5-[2-(dimethylamino)ethyl]-1H-imidazole-4,5-dicarboxamide], the IC50 is reported as 8 nM.
In the case of `O=C(Nc1ccc(NC(=O)c2ocnc2C(=O)NCCN2CCC(F)(F)CC2)cc1)c1ccc(F)cc1Cl` [Example 218, N^5-{4-[(2-chloro-4-fluorobenzoyl)amino]phenyl}-N^4-[2-(4,4-difluoropiperidin-1-yl)ethyl]-1,3-oxazole-4,5-dicarboxamide], the IC50 is reported as 110 nM.
For `O=C(Nc1ccc(NC(=O)c2nc[nH]c2C(=O)NCCN2CCCC(F)C2)cc1)c1ccc(F)cc1Cl` (stereo not drawn) [Example 226, N^4-{4-[(2-chloro-4-fluorobenzoyl)amino]phenyl}-N^5-[2-(3-fluoropiperidin-1-yl)ethyl]-1H-imidazole-4,5-dicarboxamide], the IC50 was 2 nM.
`O=C(Nc1ccc(NC(=O)c2nc[nH]c2C(=O)NC2CCOC2)cc1)c1ccc(F)cc1Cl` (stereo not drawn) [Example 236, N^4-{4-[(2-chloro-4-fluorobenzoyl)amino]phenyl}-N^5-(tetrahydrofuran-3-yl)-1H-imidazole-4,5-dicarboxamide] showed an IC50 of 60 nM.
`CNC(=O)c1nc[nH]c1C(=O)Nc1ccc(NC(=O)c2ccccc2O)cc1` [Example 239, N^5-{4-[(2-hydroxybenzoyl)amino]phenyl}-N^4-methyl-1H-imidazole-4,5-dicarboxamide] showed an IC50 of over 10000 nM.
In the case of `CNC(=O)c1nc[nH]c1C(=O)Nc1ccc(NC(=O)c2cc(OC)c(OC)cc2Cl)cc1` [Example 240, N^5-{4-[(2-chloro-4,5-dimethoxybenzoyl)amino]phenyl}-N^4-methyl-1H-imidazole-4,5-dicarboxamide], the IC50 is reported as 30 nM.
Work on `CNC(=O)c1nc[nH]c1C(=O)Nc1ccc(NC(=O)c2ccccc2C(F)F)cc1` [Example 241, N^5-(4-{[2-(difluoromethyl)benzoyl]amino}phenyl)-N^4-methyl-1H-imidazole-4,5-dicarboxamide] yielded an IC50 of 1800 nM.
Work on `CNC(=O)c1nc[nH]c1C(=O)Nc1ccc(NC(=O)c2cc(F)c(F)cc2Cl)cc1` [Example 242, N^5-{4-[(2-chloro-4,5-difluorobenzoyl)amino]phenyl}-N^4-methyl-1H-imidazole-4,5-dicarboxamide] yielded an IC50 of 30 nM.
Work on `CNC(=O)c1nc[nH]c1C(=O)Nc1ccc(NC(=O)c2ccccc2OC(F)(F)F)cc1` [Example 243, N^4-methyl-N^5-(4-{[2-(trifluoromethoxy)benzoyl]amino}phenyl)-1H-imidazole-4,5-dicarboxamide] yielded an IC50 of over 10000 nM.
Work on `CNC(=O)c1nc[nH]c1C(=O)Nc1ccc(NC(=O)c2ccc(C)cc2Cl)cc1` [Example 244, N^5-{4-[(2-chloro-4-methylbenzoyl)amino]phenyl}-N^4-methyl-1H-imidazole-4,5-dicarboxamide] yielded an IC50 of 90 nM.
For `CNC(=O)c1nc[nH]c1C(=O)Nc1ccc(NC(=O)c2ncccc2Cl)cc1` [Example 247, N^5-(4-{[(3-chloropyridin-2-yl)carbonyl]amino}phenyl)-N^4-methyl-1H-imidazole-4,5-dicarboxamide], the IC50 was 570 nM.
`CNC(=O)c1nc[nH]c1C(=O)Nc1ccc(NC(=O)c2cc(OC)ccc2Cl)cc1` [Example 248, N^5-{4-[(2-chloro-5-methoxybenzoyl)amino]phenyl}-N^4-methyl-1H-imidazole-4,5-dicarboxamide] was tested, and the IC50 was 480 nM.
For `CCOc1ccc(C(=O)Nc2ccc(NC(=O)c3[nH]cnc3C(=O)NC)cc2)c(Cl)c1` [Example 250, N^5-{4-[(2-chloro-4-ethoxybenzoyl)amino]phenyl}-N^4-methyl-1H-imidazole-4,5-dicarboxamide], the IC50 was 220 nM.
For `CNC(=O)c1nc[nH]c1C(=O)Nc1ccc(NC(=O)c2ccc(OC(F)F)cc2F)cc1` [Example 251, N^5-(4-{[4-(difluoromethoxy)-2-fluorobenzoyl]amino}phenyl)-N^4-methyl-1H-imidazole-4,5-dicarboxamide], the IC50 was over 10000 nM.
`CNC(=O)c1nc[nH]c1C(=O)Nc1ccc(NC(=O)c2cccc(OC)c2Cl)cc1` [Example 252, N^5-{4-[(2-chloro-3-methoxybenzoyl)amino]phenyl}-N^4-methyl-1H-imidazole-4,5-dicarboxamide] showed an IC50 of 3800 nM.
`CNC(=O)c1nc[nH]c1C(=O)Nc1ccc(NC(=O)c2ccc(OC(F)(F)F)cc2F)cc1` [Example 253, N^5-(4-{[2-fluoro-4-(trifluoromethoxy)benzoyl]amino}phenyl)-N^4-methyl-1H-imidazole-4,5-dicarboxamide] gave an IC50 of over 10000 nM.
In the case of `CNC(=O)c1nc[nH]c1C(=O)Nc1ccc(NC(=O)c2cnccc2Cl)cc1` [Example 254, N^5-(4-{[(4-chloropyridin-3-yl)carbonyl]amino}phenyl)-N^4-methyl-1H-imidazole-4,5-dicarboxamide], the IC50 is reported as 430 nM.
`CCS(=N)(=O)c1ccc(C(=O)Nc2ccc(NC(=O)c3[nH]cnc3C(=O)NC)cc2)c(Cl)c1` (stereo not drawn) [Example 255, N^5-(4-{[2-chloro-4-(S-ethylsulfonimidoyl)benzoyl]amino}phenyl)-N^4-methyl-1H-imidazole-4,5-dicarboxamide] gave an IC50 of 640 nM.
For `CCS(=N)(=O)c1ccc(C(=O)Nc2ccc(NC(=O)c3[nH]cnc3C(=O)NCCN3CCCCC3)cc2)c(Cl)c1` (stereo not drawn) [Example 256, N^5-(4-{[2-chloro-4-(S-ethylsulfonimidoyl)benzoyl]amino}phenyl)-N^4-[2-(piperidin-1-yl)ethyl]-1H-imidazole-4,5-dicarboxamide], the IC50 was 10 nM.
For `CCNC(=O)c1nc[nH]c1C(=O)Nc1ccc(NC(=O)c2ccccc2S(C)(=O)=O)cc1` [Example 257, N^4-ethyl-N^5-(4-{[2-(methylsulfonyl)benzoyl]amino}phenyl)-1H-imidazole-4,5-dicarboxamide], the IC50 was 5000 nM.
`CCNC(=O)c1nc[nH]c1C(=O)Nc1ccc(NC(=O)c2ccc(OCC)cc2Cl)cc1` [Example 259, N^5-{4-[(2-chloro-4-ethoxybenzoyl)amino]phenyl}-N^4-ethyl-1H-imidazole-4,5-dicarboxamide] was tested, and the IC50 was 7600 nM.
